Results reported in patent US4440740A, “α-Keto aldehydes as enhancing agents of gastro-intestinal drug absorption” (Merck & Co., Inc., priority 1982, dated 1984).

How the values were obtained:
[1] = rectal absorption of Ara-C with methylglyoxal or phenylglyoxal; conditions: in vivo
From the text: Effect of methylglyoxal and phenylglyoxal on rectal absorption of Ara-C, 4-Amino-1β-D-Arabinofuranosyl-2(1H)-pyrimidinone (Cytarabine), an antineoplastic, antiviral agent
Ara-C present at 1% w/v concentration

[2] = duodenal absorption of cyclic hexapeptide somatostatin analog with phenylglyoxal; conditions: rat, in vivo, 0.4 mg, pH 5, duodenal, 0.4 mg peptide, 250 μl, read-out: Percent Bioavailability
Method: (§1) Effect of Phenylglyoxal on Rectal and Duodenal Absorption of a Cyclic Hexapeptide Somatostatin Analog Specifically Cyclo-(N-Me-Ala-Tyr-D-Trp-Lys-Val-Phe)
(§2) 250 μl volume, pH 5/animal
(§3) Cyclo-(N--Me--Ala--Tyr--D-Trp--Lvs--Val--Phe)
duodenal 250 μl injection 1 cm distal to pylorus

[3] = rectal absorption of cyclic hexapeptide somatostatin analog with phenylglyoxal; conditions: rat, in vivo, 0.4 mg, pH 5, rectal, 0.4 mg peptide, 250 μl, read-out: Percent Bioavailability
Method: as §1, §2, §3
microenema 250 μl at 2.5 cm intrarectal depth

[4] = rectal drug bioavailability in rats, aqueous microenema with α-keto aldehyde absorption enhancer, versus intravenous administration; format: in vivo; conditions: 10 mg/kg
Method: Aqueous microenemas were administered to rats at an intrarectal depth of 2.5 cm containing 10 mg/kg target drug and 20 mg/kg α-keto aldehyde absorption enhancer. Serum samples were collected and drug bioavailability determined versus intravenous administration of the target compound. Glyoxylic acid, methylglyoxal and phenylglyoxal were tested as representative compounds in the α-keto aldehyde series. Data has been oriented for rectal delivery of two antibiotics (shown below).

Nc1ccn([C@@H]2O[C@H](CO)[C@@H](O)[C@@H]2O)c(=O)n1 [Ara-C, 4-Amino-1β-D-Arabinofuranosyl-2(1H)-pyrimidinone, reference compound]
bioavailability ([1]; rectal, Ara-C 1% w/v, adjuvant: none): 13.1%
AUC at 1.5 h ([1]; rectal, Ara-C 1% w/v, adjuvant: none, 0-90 min, read-out: 0 min-90 min (quantity head is drawing 2) of Ara-C (converted)): 1250 ng·h/mL

CC(C)[C@@H]1NC(=O)[C@H](CCCCN)NC(=O)[C@@H](Cc2c[nH]c3ccccc23)NC(=O)[C@H](Cc2ccc(O)cc2)NC(=O)[C@H](C)N(C)C(=O)[C@H](Cc2ccccc2)NC1=O [Cyclo-(N-Me-Ala-Tyr-D-Trp-Lys-Val-Phe)]
bioavailability ([2]; phenylglyoxal 0 mg/ml): 1%
bioavailability ([2]; phenylglyoxal 25 mg/ml): 20%
bioavailability ([3]; phenylglyoxal 0 mg/ml): 7%
bioavailability ([3]; phenylglyoxal 25 mg/ml): 34%

O=CC(=O)c1ccccc1 [Phenylglyoxal, phenyl glyoxal]
% Bioavailability of Ara-C [1]: 70.5%
0 min-90 min (quantity head is drawing 2) of Ara-C ([1]; 90 min): 798 ± 71.0 µg·min/mL

CO[C@@]1(NC(=O)Cc2cccs2)C(=O)N2C(C(=O)O)=C(COC(N)=O)CS[C@@H]21 [sodium cefoxitin, (6R-cis)-3-[[(Aminocarbonyloxy]methyl]-7-methoxy-8-oxo-7-[(2-thienylacetyl))amino]-5-thia-1-azabicyclo-[4.2.0]oct-2-ene-2-carboxylic acid]
bioavailability ([4]; rat, in vivo): 5%

gentamicin sulfate
% bioavailability, control formulations ([4]; rectal, control formulation without keto aldehyde adjuvant, mean, 3 animals): 5%
